Reference: patent publication US4767778A (Institut National de la Sante et de la Recherche Medicale …, priority 1985, dated 1988)
Like-named read-outs stand apart in the source and are kept apart here.

What was measured:
H1 /H2 receptors = settings: histamine = 100%; cited from earlier work
H3 autoreceptors [1] = target: T1, H3 autoreceptors (Rattus norvegicus, UniProt Q9QYN8)
H3 receptors [2] = experiment: Inhibition of synthesis of histamine in slices of human cerebral cortex and posterior hypothalamus; assay type: cell-based; settings: slices of human cerebral cortex and posterior hypothalamus (mamillary)
H3 receptors [3] = experiment: Inhibition of the synthesis of (3H) histamine in rats in vivo; set-up: species or system rat; settings: for (3) histamine (% of the total radioactivity × 10^-3), Treated: 10 minutes
H3 autoreceptors [4] = target: T1, H3 autoreceptors; settings: slices of rat brain

T1 sequence (Q9QYN8 whole entry): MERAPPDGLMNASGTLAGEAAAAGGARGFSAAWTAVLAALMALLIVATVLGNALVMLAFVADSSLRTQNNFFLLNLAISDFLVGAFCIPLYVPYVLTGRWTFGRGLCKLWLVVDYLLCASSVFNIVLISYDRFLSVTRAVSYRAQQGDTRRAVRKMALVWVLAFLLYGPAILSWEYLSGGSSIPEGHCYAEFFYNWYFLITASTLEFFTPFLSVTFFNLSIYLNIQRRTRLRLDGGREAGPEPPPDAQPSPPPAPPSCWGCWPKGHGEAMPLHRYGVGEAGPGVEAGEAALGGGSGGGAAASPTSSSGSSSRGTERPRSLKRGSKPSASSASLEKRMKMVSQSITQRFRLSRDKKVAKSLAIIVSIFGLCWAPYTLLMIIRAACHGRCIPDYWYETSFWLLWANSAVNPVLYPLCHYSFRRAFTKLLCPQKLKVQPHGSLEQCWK

| SMILES | Activity relative to histamine (%) H1 /H2 receptors (H1 /H2 receptors) | EC50 (H3 autoreceptors [1]) | Activity relative to histamine (%) H3 receptors (H3 autoreceptors [1]; histamine = 100% (EC50 […] nM)) | other results |
| --- | --- | --- | --- | --- |
| CC(CN)c1c[nH]cn1 (racemic) [3 (R, S), 4-(1-methyl 2-aminoethyl)-imidazole] | 2-2% | 20 ± 5 nM | 120% | – |
| C[C@](N)(Cc1c[nH]cn1)C(=O)O (racemic) [6 (R, S), α-methylhistidine] | inactive | 1000 ± 500 nM | 6% | – |
| CC(N)Cc1c[nH]cn1 (racemic) [compound 1, 4-(2-aminopropyl)-imidazole] | – | – | – | effect on synthesis of histamine (H3 receptors [2]): inhibits |
| C[C@@H](N)Cc1c[nH]cn1 [1 (R), 4-(2-aminopropyl)-imidazole] | – | – | – | effect on the synthesis of (3H) histamine in the brain and peripheral tissues (H3 receptors [3]; 10 mg/kg, simultaneous with (3H)-L-histidine, completely reversed by an H3 antagonist): significantly reduces; (3) histamine (% of the total radioactivity × 10^-3), Treated (H3 receptors [3]; Cerebral cortex, 10 mg/kg i.v. with (3H)-L-histidine, controls 95 ± 6): 53 ± 6 % of the total radioactivity ×; Variation (%) (H3 receptors [3]; Cerebral cortex, 10 mg/kg i.v., p < 0.01): -45%; (3) histamine (% of the total radioactivity × 10^-3), Treated (H3 receptors [3]; Hypothalmus, 10 mg/kg i.v., controls 272 ± 11): 185 ± 32 % of the total radioactivity ×; Variation (%) (H3 receptors [3]; Hypothalmus, 10 mg/kg i.v., p < 0.01): -32%; Variation (%) (H3 receptors [3]; Kidneys, 10 mg/kg i.v., p < 0.05): -30%; (3) histamine (% of the total radioactivity × 10^-3), Treated (H3 receptors [3]; Lungs, 10 mg/kg i.v., controls 138 ± 10): 94 ± 10 % of the total radioactivity ×; Variation (%) (H3 receptors [3]; Lungs, 10 mg/kg i.v., p < 0.05): -32%; (3) histamine (% of the total radioactivity × 10^-3), Treated (H3 receptors [3]; Spleen, 10 mg/kg i.v., controls 60 ± 8): 42 ± 5 % of the total radioactivity ×; Variation (%) (H3 receptors [3]; Spleen, 10 mg/kg i.v., p < 0.05): -30% |
| CC(C)(N)Cc1c[nH]cn1 [compound 2, 4-(2-methyl 2-aninopropyl)-imidazole] | < 1% | 20 ± 10 nM | – | Activity relative to histamine (%) H3 receptors (H3 autoreceptors [1]): 300% |
| CC(C)(CN)c1c[nH]cn1 [compound 4, 4-(1,1-dimethyl 2-aminoethyl)-imidazole] | < 0.1% | 50 ± 20 nM | 120% | – |
| NC1CC1c1c[nH]cn1 (stereo not shown) [compound 5, 2-(4-imidazolyl)-cyclopropylamine] | < 1% | < 100 nM | > 60% | – |
| NCCc1c[nH]cn1 [histamine, reference compound] | – | – | – | maximal inhibition of release of (3H) histamine (H3 autoreceptors [1]; slices of rat brain): approximately 60%; maximal inhibition of the stimulation by potassium of the synthesis of (3H) histamine (H3 autoreceptors [4]): approximately 70% |
